According to BindingDB's records for doi:10.1002/cbic.201000487 (Eberhard Karls University of Tuebingen, 2010):

Tests used:
[1] = target: Mitogen-activated protein kinase 10 (Homo sapiens, UniProt P53779); assay: Kinase Assay; conditions: 37 °C
Method: (§1) The p38alpha reaction was carried out by using kinase (12ng per well), ATP (100uM) and incubated for 60 min at 37 C. For the JNK3 assay, kinase (10ng per well), ATP (1uM) and 45 min of incubation time at 37 C were used.

[2] = target: Mitogen-activated protein kinase 14 (Homo sapiens, UniProt Q16539); assay: Kinase Assay; conditions: 37 °C
Method: as §1

Mitogen-activated protein kinase 14, sequence (Q16539 whole entry): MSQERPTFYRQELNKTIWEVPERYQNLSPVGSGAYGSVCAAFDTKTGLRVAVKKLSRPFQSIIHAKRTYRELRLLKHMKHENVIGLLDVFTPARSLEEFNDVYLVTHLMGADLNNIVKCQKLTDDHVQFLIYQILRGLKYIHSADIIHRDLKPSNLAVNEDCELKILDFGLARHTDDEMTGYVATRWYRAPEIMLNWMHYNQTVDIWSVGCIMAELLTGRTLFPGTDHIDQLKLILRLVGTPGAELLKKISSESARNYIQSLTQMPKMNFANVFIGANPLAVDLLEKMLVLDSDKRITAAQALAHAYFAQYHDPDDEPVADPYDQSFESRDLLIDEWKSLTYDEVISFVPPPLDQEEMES
Mitogen-activated protein kinase 10, sequence (P53779 whole entry): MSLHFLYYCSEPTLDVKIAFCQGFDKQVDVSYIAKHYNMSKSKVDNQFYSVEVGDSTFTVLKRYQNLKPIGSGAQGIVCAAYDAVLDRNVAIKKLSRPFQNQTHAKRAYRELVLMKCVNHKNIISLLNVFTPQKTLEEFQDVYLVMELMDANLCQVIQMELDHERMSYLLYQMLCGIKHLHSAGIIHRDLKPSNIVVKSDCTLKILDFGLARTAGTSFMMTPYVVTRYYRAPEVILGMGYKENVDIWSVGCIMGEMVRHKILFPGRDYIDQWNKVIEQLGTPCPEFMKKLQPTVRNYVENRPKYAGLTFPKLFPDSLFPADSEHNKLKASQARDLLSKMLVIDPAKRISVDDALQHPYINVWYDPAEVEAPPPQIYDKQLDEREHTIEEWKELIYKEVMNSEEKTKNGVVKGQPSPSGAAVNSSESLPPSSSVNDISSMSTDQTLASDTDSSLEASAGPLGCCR

| SMILES | IC50 [1] | IC50 [2] |
| --- | --- | --- |
| COc1cc(-c2oc3cc(O)cc(O)c3c(=O)c2O)ccc1O | 6.3 µM | 20.1 µM |
| Oc1cc(O)c2c(c1)O[C@H](c1ccc(O)c(O)c1)[C@H](O)C2 | 89.5 µM | 67.6 µM |
| O=c1cc(-c2ccc(O)c(O)c2)oc2cc(O[C@@H]3O[C@H](CO)[C@@H](O)[C@H](O)[C@H]3O)cc(O)c12 | 2.45 µM | 87.1 µM |
| O=c1c(O)c(-c2ccc(O)c(O)c2)oc2cc(O)cc(O)c12 [2-(3,4-dihydroxyphenyl)-3,5,7-trihydroxy-chromone;hydrate] | 2.31 µM | 3.45 µM |
| O=c1cc(-c2ccc(O)c(O)c2)oc2cc(O)cc(O)c12 [2-(3,4-dihydroxyphenyl)-5,7-dihydroxy-4H-chromen-4-one] | 2.3 µM | 18 µM |
| C[C@@H]1O[C@@H](OC[C@H]2O[C@@H](Oc3c(-c4ccc(O)c(O)c4)oc4cc(O)cc(O)c4c3=O)[C@H](O)[C@@H](O)[C@@H]2O)[C@H](O)[C@H](O)[C@H]1O [3-Rhamnoglucosylquercetin] | – | 65.9 µM |
| COc1c(O)cc2oc(-c3ccc(O)cc3)cc(=O)c2c1O [5,7-dihydroxy-2-(4-hydroxyphenyl)-6-methoxy-4H-chromen-4-one] | 34.8 µM | 18.6 µM |
| COc1ccc(-c2cc(=O)c3c(O)cc(O)cc3o2)cc1 [5,7-dihydroxy-2-(4-methoxyphenyl)-4H-chromen-4-one] | 5.78 µM | 50 µM |
| O=c1cc(-c2ccccc2)oc2cc(O)cc(O)c12 [5,7-dihydroxy-2-phenyl-4H-chromen-4-one] | 11.8 µM | 39.9 µM |
| COc1ccc([C@@H]2CC(=O)c3c(O)cc(O)cc3O2)cc1O [(2S)-5,7-dihydroxy-2-(3-hydroxy-4-methoxyphenyl)-3,4-dihydro-2H-1-benzopyran-4-one] | – | 54.6 µM |
| Oc1cc(O)c2c(c1)O[C@H](c1cc(O)c(O)c(O)c1)[C@@H](O)C2 [(+)-gallocatechin] | 5.3 µM | 3.53 µM |
| O=c1cc(-c2ccc(O)c(O)c2)oc2c([C@@H]3O[C@H](CO)[C@@H](O)[C@H](O)[C@H]3O)c(O)cc(O)c12 [Luteolin 8-C-glucoside] | 38.2 µM | 55.7 µM |
| COc1cc(O)c2c(=O)cc(-c3ccc(OC)c(OC)c3)oc2c1 [Luteolin-7,3',4'-trimethylether] | – | 33.2 µM |
| O=c1c(-c2ccc(O)cc2)coc2cc(O)cc(O)c12 [Prunetol] | – | 61.4 µM |
| O=c1cc(O)cc2oc(-c3ccc(O)c(O)c3)c(O[C@@H]3O[C@H](CO)[C@@H](O)[C@H](O)[C@H]3O)c(O)c1-2 [Quercetin 3-O-beta-D-glucoside] | 21.7 µM | 51.3 µM |
| COc1cc(O)c2c(=O)cc(-c3ccc(O)c(OC)c3)oc2c1 [Velutin] | 7.8 µM | 52.5 µM |

Continued by falling IC50 [2], values first:

| IC50 [1] | IC50 [2] | SMILES |
| --- | --- | --- |
| 52.5 µM | 32.9 µM | COc1ccc(-c2oc3cc(O)cc(O)c3c(=O)c2O)cc1 [Kaempferide] |
| – | 32.4 µM | COc1ccc(-c2cc(=O)c3c(O)c(OC)c(O)cc3o2)cc1 [4,5-Dihydroxy-6-methoxy-2-(4-methoxy-phenyl)-chromen-7-one] |
| 20.2 µM | 28.1 µM | C[C@@H]1O[C@@H](Oc2c(-c3ccc(O)c(O)c3)oc3cc(O)cc(=O)c-3c2O)[C@H](O)[C@H](O)[C@H]1O |
| – | 27.8 µM | COc1ccc(-c2cc(=O)c3c(O)cc(OC)cc3o2)cc1 [5-hydroxy-7-methoxy-2-(4-methoxyphenyl)-4H-chromen-4-one] |
| 16.3 µM | 23.9 µM | COc1ccc(-c2cc(=O)c3c(O)c(OC)c(O)c(OC)c3o2)cc1 [Nevadensin] |
| 15.9 µM | 22.2 µM | COc1c(O)cc2oc(-c3ccc(O)c(O)c3)cc(=O)c2c1O |
| 19.1 µM | 18.9 µM | COc1cc(-c2cc(=O)c3c(O)c(OC)c(O)cc3o2)ccc1O [Jaceosidin] |
| 19.1 µM | 18.4 µM | O=c1c(O)c(-c2ccc(O)cc2)oc2cc(O)cc(O)c12 |
| 22.4 µM | 17.2 µM | COc1c(O)cc2oc(-c3ccc(O)cc3)c(O)c(=O)c2c1O [6-methoxy kaempferol] |
| 60.9 µM | 16.3 µM | COc1c(O)cc2oc(-c3ccc(O)c(O)c3)c(O)c(=O)c2c1O [Patuletin] |
| 2.2 µM | 14.3 µM | O=c1cc(-c2ccc(O)cc2)oc2cc(O)cc(O)c12 [Naringenin, 18] |
| 7.7 µM | 12.3 µM | COc1cc(O)c2c(=O)c(OC)c(-c3ccc(O)c(O)c3)oc2c1 [3',4',5-trihydroxy-3,7-dimethoxyflavone] |
| 26.8 µM | 11.4 µM | O=c1c(O)c(-c2ccc(O)cc2O)oc2cc(O)cc(O)c12 [2-(2,4-dihydroxyphenyl)-3,5,7-trihydroxychromen-4-one] |
| 55.4 µM | 3.98 µM | COc1cc(O)c2c(=O)c(O)c(-c3ccc(OC)c(O)c3)oc2c1 [Kaempferol-7,4'-dimethylether] |
| 2.6 µM | 2.7 µM | O=c1c(O)c(-c2ccc(O)c(O)c2)oc2cc(O)ccc12 [2-(3,4-dihydroxyphenyl)-3,7-dihydroxy-chromen-4-one] |
| 2.24 µM | 1.64 µM | O=c1c(O)c(-c2cc(O)c(O)c(O)c2)oc2cc(O)cc(O)c12 |
